# Tested on: fungi
# Assay: Observed contribution of nutrients to antifungal activity
# Type: cell-based
# Details: nutrient of the antimicrobial mixture
row,SMILES,contribution to the antifungal activity of the antimicrobial mixture
1,NCC(=O)O [glycine],contribute minimally
2,O=C1O[C@H]([C@@H](O)CO)C(O)=C1O [ascorbic acid],contribute minimally
3,O=C(O)CC(O)(CC(=O)O)C(=O)O [citrate],contribute minimally
4,CC(O)C(=O)O (stereo not shown) [lactate],follows the glucose with regard to the significance of its contribution

# Reference: patent US10632202B2, “Preservative containing compositions” (JOHNSON & JOHNSON CONSUMER INC., priority 2016, dated 2020)
